The target of the assay is cannabinoid receptor type 2 (CB2) (Homo sapiens, UniProt P34972). Nature of the assay: radioligand saturation binding.

The structures appear in SMILES notation.

Usually Kd stands for a measure of binding affinity in units of concentration. Read a high Kd as weaker binding.

Sequence of cannabinoid receptor type 2 (CB2) (P34972 whole entry): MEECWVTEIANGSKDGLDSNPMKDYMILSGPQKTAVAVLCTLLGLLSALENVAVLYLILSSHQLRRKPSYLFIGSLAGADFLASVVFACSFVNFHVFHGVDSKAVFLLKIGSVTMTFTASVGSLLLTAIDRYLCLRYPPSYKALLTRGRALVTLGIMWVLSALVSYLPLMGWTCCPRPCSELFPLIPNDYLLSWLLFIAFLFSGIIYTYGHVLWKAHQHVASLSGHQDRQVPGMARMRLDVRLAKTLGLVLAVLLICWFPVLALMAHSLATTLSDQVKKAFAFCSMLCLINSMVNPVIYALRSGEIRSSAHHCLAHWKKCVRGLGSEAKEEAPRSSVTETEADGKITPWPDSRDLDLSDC

On to `CCCCOc1c(OC)ccc2cc(C(=O)NCc3ccc(F)cc3)c(=O)[nH]c12` [[18F]-14, 7-methoxy-8-butoxy-2-oxo-1,2-dihydroquinoline-3-carboxylic acid-(4-fluorobenzyl)amide], for which the dissociation constant (Kd) was 3.4 nM.

The values above are taken from paper PMC3324652 (2012).
